Test results from patent publication US7495028B2, “R-bambuterol, its preparation and therapeutic uses” (priority 2002, dated 2009).
Counter-ions that a name gives are not always drawn. Marks after values point to notes of the source that are not given here.

Legend:
[1] = system: hyperlipidemia mice; test: Lipid lowering effects in Tyloxapol-induced hyperlipidemia mice; assay type: in vivo; details: for TG lipid level: plasma 24 hours after Tyloxapol
Method: Test method: Male and […] mice, Kunming strain, 35 each, weight 18-22 grams, were used. Food and water were available ad libitum. The animals were randomized into 7 groups (n=10). Groups of animals were administered orafly, via a stomach tube, vehicle (distilled water, two groups), R-bambuterol hydrochloride (10 mg/kg and 5 mg/kg), racemic bambuterol hydrochloride (10 mg/kg and 5 mg/kg) and simvastatin (10 mg/kg) once a day for four days. With the exception of one vehicle—treated group (as control), Tyloxapol (400 mg/kg, Sigma Chemical Co.) was injected into the peritoneal cavity of the mice of all groups immediately after the last treatment on the fourth day in order to induce hyperlipidemia. All the animals were fasted overnight prior to the injection of Tyloxapol. Blood samples were collected by cardiac puncture 24 hours after the injection of Tyloxapol. The blood samples were processed to plasma, and concentration of triglycerides (TG), cholesterol (CHO), high density lipoprotein (HDL), low density lipoprotein (LDL) and very low density lipoprotein (VLDL) were measured with an autoblood analyzer (Olympic, Japan).

[2] = system: sensitized conscious guinea pigs exposed to aerosol ovalbumin; test: Protection against allergic bronchospasm in ovalbumin-sensitized conscious guinea pigs; assay type: in vivo, guinea pig
Method: Test method: Guinea pigs (Dunkin-Hartley strain, 200±10 g, equal sexes) were used in this study. Ovalbumin (5%) solution was injected into guinea pigs subcutaneously and intraperitoneally to sensitize the animals. Male and female sensitized animals were kept separately for 14 days, and food and water was available ad libitum. On day 14 after sensitization, animals were randomized into groups of 8 each. The animals were treated orally with saline (control) or various concentrations of R-bambuterol or racemic bambuterol in saline. Four hours after the treatment, each animal was restrained in a glass chamber. After stabilization the animal was exposed to an aerosol of ovalbumin generated by a nebulizer from a 5% solution of ovalbumine at a rate of 0.5 ml/min for a period of 15 seconds. The animal was removed from the chamber, and the behavior of the animal was monitored. The number of the sensitized animals which collapsed were counted, and the latency time, i.e. the time from the exposure to aerosol ovalbumin to the collapse of the animal, was recorded.

[3] = system: conscious guinea pigs exposed to aerosol histamine; test: Protection against histamine-evoked asthma in conscious guinea pigs; assay type: in vivo, guinea pig; details: for Collapsed n: 8 animals; for Potency relative to racemic bambuterol: bronchospasmolytic / protective effect, hydrochloride; for % collapse / Latency time of collapse: dose-response, four hours before exposure
Method: Test methods: Guinea pigs (Dunki-Hartley strain, 190±30 g) were fasted overnight but given water ad libidum. The animals were restrained individually in a glass chamber and exposed to aerosol histamine generated by a nebulizer from a 0.2% aqueous solution of histamine under constant pressure at dose of 0.5 ml/min for a period of 15 sec. The animal was removed from the chamber, and its behavior was monitored. A sign of collapse and the latency time from exposure to collapse were recorded. Only the animals with latency time less than 120 sec, as an indication of sensitive to histamine, were chosen for later experiments. The animals chosen were allowed to recover completly by resting for 24 hours before experiments. Test compounds and racemic bambuterol hydrochloride were dissolved in saline.
Time course of the effect of test compounds: R-Bambuterol hydrochloride or racemic bambuterol hydrochloride at 2, 4 and 8 mg/kg, and vehicle alone, were administered to the guinea pigs orally via a stomach tube. Exposure of treated animals to aerosol histamine (as above) was done at 1, 4 and 24 hours after treatment. For each experimental group, there were a total of 8 animals with equal number of both sexes, and no repeated exposure was made for individual experimental animals.
Study of dose-response of test compounds: Four hours before the exposure to aerosol histamine, animals were randomized into groups (n=8, equal male and female), and given R-bambuterol hydrochloride or racemic bambuterol in doses of 0.25, 0.5, 1.0, 2.0, 4.0 and 8.0 mg/kg, and vehicle control, orally via a stomach tube. The numbers of collapsed animal as a result of asthmatic reaction to aerosol histamine were counted, and the latency times were recorded. Both of these parameters were used as quantitative measurements of the protective effects of the treatments on bronchospasm evoked by aerosol histamine.

[4] = system: rats; test: Cardiovascular effects in anesthetized rats; assay type: in vivo; details: both, Sprague Dawley, rat, in vivo, 20 min
From the text: Test method: Rats (Sprague Dawley, 250-300 g) were randomized into two groups (n=6, equal sexes). After anesthesia, plastic tubing was introduced into a carotid artery of each animal and connected to pressure transducers to record mean artery pressure (MBP) and heart rate (HR). Another tube was introduced into the left ventricular chamber via the another carotid artery and connected to a pressure transducer. Left ventricular systolic pressure (LVSP) and the first order of differential of LVSP (dp/dt) as an index for inotropic effects were recorded. R-Bambuterol and racemic bambuterol hydrochloride were dissolved in saline and administrated intravenously at 30 mg/kg to each animal. The HR, MBP and Max dp/dt were measured before treatment (control) and after the treatments when the maximum response occurred, and 20 min after treatment as indication of recovery.

[5] = system: β-2 receptor; details: Hartley and Middlemis 1971; cited from earlier work
[6] = system: isolated guinea pig lung strip; test: Bronchodilating effect on isolated guinea pig lung strip pre-contracted by histamine; assay type: cell-based
Method: Test method: Guinea pigs (Dunlin-Hartley, ca. 400 g) were used. After anesthesia, the chest was opened and sections of lung tissue about 3 mm in width, were dissected quickly from a lower lobe with the longitudinal axis of the strip cut parallel to the bronchus. The strips were further divided into two thin strips with approximate dimension of 20×3×3 mm. With threads attached to each end, strips were mounted in organ baths containing aerated Krebs solution at 37° C. A load of between 0.5-1.0 g force was applied by gentle stretching, and the tissue was allowed to equilibrate for 60 min with the solution changed at 20 min intervals. The lung strips were pre-contracted by 10^−5 M histamine, then an equal volume of solution containing R-bambuterol or racemic bambuterol was added cumulatively into the organ bath. The contractions of the lung strips were measured isometrically with force-displacement transducers and recorded.
Based on the pharmacokinetic studies of racemic bambuterol hydrochloride, about 50% of absorbed bambuterol is hydrolyzed to terbutaline, the active-parent form, in plasma. There is little cholinesterase in the lung strip preparation, so neither the test compound nor racemic bambuterol has significant effects. In order to test the compound of invention in vitro on isolated guinea-pig lung tissue, R-bambuterol and racemic bambuterol were administrated orally to guinea pigs at a dose of 8 mg/kg. Four hours later, blood was collected from the animals, and the serum containing the active parent form of the test compounds were prepared. The concentration of the active parent form, i.e. terbutaline, in serum measured using BPLC, was 64-70 ng/ml in the animal treated with R-bambuterol and 62-69 ng/ml in the animal treated with racemic bambuterol. The serum containing the active form of test compound was then added into the organ in a certain volume, so that the final concentration of the active forms of test compounds was 0.25 ng/ml in the organ bath. Concentration-response relationships were obtained using a cumulative dose schedule by adding the same volume of the serum into the organ bath. The test using the serum containing the active form of racemic bambuterol was done in parallel with the test compound in the same manner as described above.

[7] = Tyl + 10 mg (10 mg/kg oral once a day for four days)
[8] = 0.25 ng/ml active form in organ bath, 10^−5 M histamine pre-contraction

## CN(C)C(=O)Oc1cc(OC(=O)N(C)C)cc([C@@H](O)CNC(C)(C)C)c1 [R-bambuterol, R-Bambuterol hydrochloride]
[1]; Tyl + 5 mg
  CHO lipid level: 189 ± 83 mg/dL
  HDL lipid level: 42 ± 27 mg/dL
  LDL lipid level: 34 ± 15 mg/dL
  VLDL lipid level: 50 ± 26 mg/dL
[1]; Tyl + 5 mg (5 mg/kg oral once a day for four days)
  TG lipid level: 323 ± 176 mg/dL
[1]; Tyl + 10 mg
  CHO lipid level: 119 ± 16 mg/dL
  HDL lipid level: 53.3 ± 6.7 mg/dL
  LDL lipid level: 29 ± 5 mg/dL
  VLDL lipid level: 35 ± 7 mg/dL
[1]; [7]
  TG lipid level: 105 ± 18 mg/dL
[2]; 1 mg/kg oral
  % collapsed: 63%
  Latency time: 193 ± 30 s
[2]; 1 mg/kg oral (n = 8), four hours before aerosol ovalbumin
  Number collapsed: 5
[2]; 4 mg/kg oral
  % collapsed: 25%
  Latency time: 293 ± 27 s
[2]; 4 mg/kg oral (n = 8)
  Number collapsed: 2
[2]; 8 mg/kg oral
  % collapsed: 0%
  Latency time: >360*# sec
[3]; 2 mg/kg oral, 1st Hour
  Collapsed %: 50.0* %
  Latency: 231 ± 70 s
  Collapsed n: 4.0
[3]; 2 mg/kg oral, 4th Hour
  Collapsed %: 25.0* %
  Latency: 295 ± 65 s
  Collapsed n: 2.0
[3]; 2 mg/kg oral, 24th Hour
  Collapsed %: 62.5%
  Latency: 202 ± 67 s
  Collapsed n: 5.0
[3]; 4 mg/kg oral, 1st Hour
  Collapsed %: 37.5* %
  Latency: 258 ± 71 s
  Collapsed n: 3.0
[3]; 4 mg/kg oral, 4th Hour
  Collapsed %: 0.0* %
  Latency: >360 s
  Collapsed n: 0.0
[3]; 4 mg/kg oral, 24th Hour
  Collapsed %: 50.0%
  Latency: 242 ± 64 s
  Collapsed n: 4.0
[3]; 8 mg/kg oral, 1st Hour
  Collapsed %: 25.0%
  Latency: 299 ± 57 s
  Collapsed n: 2.0
[3]; 8 mg/kg oral, 4th Hour
  Collapsed %: 0.0%
  Latency: >360 s
  Collapsed n: 0.0
[3]; 8 mg/kg oral, 24th Hour
  Collapsed %: 37.5%
  Latency: 256 ± 72 s
  Collapsed n: 3.0
[3]; Cavia porcellus, 4 h, oral, four hours before aerosol histamine, read-out: ED50 (protection against collapse)
  ED50: 0.91 mg/kg
[3]; oral
  Potency relative to racemic bambuterol: about twice
[3]; oral, listed as R enantiomer of bambuterol
  Potency relative to racemic bambuterol: about twice
[3]; oral, listed as R-Bambuterol
  Potency relative to racemic bambuterol: about twice
[3]; 0.25 mg/kg oral
  % collapse: 87.5%
  Latency time of collapse: 110 s
[3]; 0.5 mg/kg oral
  % collapse: 75%
  Latency time of collapse: 160 s
[3]; 1 mg/kg oral
  % collapse: 50%
  Latency time of collapse: 209 s
[3]; 2 mg/kg oral
  % collapse: 25%
  Latency time of collapse: 295 s
[3]; 4 mg/kg oral
  % collapse: 0%
  Latency time of collapse: >360 s
[3]; 8 mg/kg oral
  % collapse: 0%
  Latency time of collapse: >360 s
[3]; oral 2 to 8 mg/kg
  Onset of protective effects after administration: one
  Time of maximum protective effects after administration: 4 h
[3]; oral, collapse after aerosol histamine
  Dose at which full protective effect was seen: 4 mg/kg
[3]; oral, latency time to collapse
  Dose at which maximum effects on latency were seen: 4 mg/kg
[4]
  HR 20 min after Δ, % of Control: 3.7%
  Maxdp/dt 20 min after Δ, % of control: 5.0%

## CC(C)(C)NC[C@H](O)c1ccc(O)c(CO)c1 [R-enantiomer of albuterol, albuterol]
[5]
  Potency as β-2 receptor agonist relative to the S-enantiomer: approximately 80 times

## CCC(C)(C)C(=O)O[C@H]1C[C@@H](C)C=C2C=C[C@H](C)[C@H](CC[C@@H]3C[C@@H](O)CC(=O)O3)[C@H]21 [simvastatin]
[1]; Tyl + 10 mg
  CHO lipid level: 176 ± 64 mg/dL
  HDL lipid level: 49 ± 16 mg/dL
  LDL lipid level: 42 ± 11 mg/dL
  VLDL lipid level: 85 ± 50 mg/dL
[1]; [7]
  TG lipid level: 311 ± 187 mg/dL

## CC(C)(C)NCC(O)c1cc(O)cc(O)c1 (racemic) [Active form of RS-bambuterol, racemic terbutaline]
[6]; [8]
  Percent of Relaxation: 7.6 ± 0.8%
[6]; 0.50 ng/ml active form
  Percent of Relaxation: 10.8 ± 2.1%
[6]; 0.75 ng/ml active form
  Percent of Relaxation: 26.5 ± 3.4%
[6]; 1.00 ng/ml active form
  Percent of Relaxation: 39.6 ± 4.0%
[6]; 1.25 ng/ml active form
  Percent of Relaxation: 45.7 ± 6.7%

## CC(C)(C)NC[C@H](O)c1cc(O)cc(O)c1 [Active form of R-bambuterol, R-terbutaline]
[6]; [8]
  Percent of Relaxation: 12.4 ± 1.3%
[6]; 0.50 ng/ml active form
  Percent of Relaxation: 19.5 ± 2.2%
[6]; 0.75 ng/ml active form
  Percent of Relaxation: 43.7 ± 1.8%
[6]; 1.00 ng/ml active form
  Percent of Relaxation: 60.1 ± 5.7%
[6]; 1.25 ng/ml active form
  Percent of Relaxation: 75.6 ± 8.4%
